Reference: patent US6387655B1, “Excitatory amino acid receptor protein and related nucleic acid compounds” (Eli Lilly and Company, priority 1995, dated 2002)
Read-outs that look alike come from different tables or passages of the source.

Biological target: T1, human HmGluR3 (Homo sapiens, UniProt Q14832)
T1 construct: expressed in transfected cells; host or cells: RGT (RGT-18) cells, i.e. AV12 cells stably expressing the rat glutamate transporter GLAST
Experiment: Inhibition of forskolin-stimulated cAMP synthesis (adenylate cyclase activity) in RGT cells stably transfected with pGTh-HmGluR3
Assay type: cell-based
Description: In an especially preferred embodiment of this invention an assay measuring the inhibition of forskolin-stimulated cAMP synthesis was performed. The inhibition of cAMP synthesis is known to positively correlated with the addition of glutamate to cells containing certain types of metabotropic receptors.
Adenylate cyclase activity was determined in initial experiments in transfected mammalian cells, using standard techniques. See. e.g., N. Adham, et al., supra,; R. L. Weinshank, et al., Proceedings of the National Academy of Sciences (USA), 89:3630-3634 (1992), and the references cited therein.
As noted above, mammalian cells (the cell line RGT) were stably transfected with the plasmid pGTh-HmGluR3, containing human HmGluR3 cDNA inserted in the plasmid vector pGTh, as depicted in FIG. 2. The cells were maintained in a medium consisting of Dulbecco's Modified Eagle's Medium (DMEM) containing 5% dialyzed fetal calf serum, 10 mM HEPES buffer (pH 7.3), 1 mM sodium pyruvate, 1 mM glutamine, and 200 μg/ml hygromycin.
For the assay the cells were disassociated from stock culture flasks with trypsin, and planted in 24-well plastic culture dishes (15 mm wells) at a density of 500-700,000 cells per well using the same culture medium. After twenty four hours incubation in a humidified carbon dioxide incubator, the cell monolayers are washed with buffer (Dulbecco's phosphate-buffered saline containing 0.5 mM isobutylmethylxanthine and 3 mM glucose) and then incubated in the same buffer at 37° C. for 30 minutes. The monolayers are then washed four additional times with buffer.
Drugs and forskolin, or forskolin alone, dissolved in buffer, was added after the final wash. After incubating for 20 minutes at 37° C., 0.5 ml of 8 mM EDTA was added to each well. The plates were then placed in a boiling water bath for about four minutes. The supernatant fluids are then recovered from the wells and lyophilized. Cyclic adenosinemonophosphate (cAMP) determinations were carried out on the lyophilized samples using commercially available radioimmunoassay kits, following the manufacturer's instructions. The cAMP level in wells containing drug was compared to the forskolin controls.

[1] = RGT cells expressing HmGluR3, cAMP by radioimmunoassay versus forskolin controls, 20 minutes at 37° C., read-out: EC50 (potencies of selected agonists for HmGluR3 expressed in RGT cells)

T1 sequence (Q14832 23-879): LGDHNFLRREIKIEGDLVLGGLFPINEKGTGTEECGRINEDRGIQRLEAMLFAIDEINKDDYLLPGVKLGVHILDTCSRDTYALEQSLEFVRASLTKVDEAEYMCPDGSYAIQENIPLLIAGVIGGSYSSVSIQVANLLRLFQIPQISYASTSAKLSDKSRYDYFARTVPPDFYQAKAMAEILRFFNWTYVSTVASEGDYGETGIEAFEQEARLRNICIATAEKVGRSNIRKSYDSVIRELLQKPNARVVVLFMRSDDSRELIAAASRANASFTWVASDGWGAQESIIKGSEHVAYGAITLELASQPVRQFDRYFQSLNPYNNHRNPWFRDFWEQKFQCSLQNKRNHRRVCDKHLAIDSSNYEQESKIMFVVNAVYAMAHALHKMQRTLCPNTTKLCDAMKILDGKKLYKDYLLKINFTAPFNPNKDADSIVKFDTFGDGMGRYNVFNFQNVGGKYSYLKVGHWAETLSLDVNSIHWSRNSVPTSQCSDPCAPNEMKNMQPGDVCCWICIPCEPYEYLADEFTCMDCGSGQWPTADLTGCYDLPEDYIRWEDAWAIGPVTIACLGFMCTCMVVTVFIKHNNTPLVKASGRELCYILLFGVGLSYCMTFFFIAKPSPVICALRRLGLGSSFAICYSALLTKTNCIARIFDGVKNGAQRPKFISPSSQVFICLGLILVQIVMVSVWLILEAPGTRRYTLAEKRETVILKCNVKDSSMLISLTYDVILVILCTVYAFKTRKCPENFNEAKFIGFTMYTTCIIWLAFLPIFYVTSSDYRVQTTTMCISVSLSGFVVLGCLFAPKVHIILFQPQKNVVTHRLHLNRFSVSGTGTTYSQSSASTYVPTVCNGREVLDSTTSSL

SMILES | EC50 | EC50 [1]
N[C@@H](CCC(=O)O)C(=O)O [L-Glutamate, 1-aminopropane-1,3-dicarboxylic acid] | 5.38 µM | –
NC1(C(=O)O)CCC(C(=O)O)C1 (stereo not drawn) [1S,3R-1-aminocyclopentant-1,3-dicarboxylic acid] | 2.23 µM | –
N[C@H](C(=O)O)C1CC1C(=O)O (stereo partly drawn) [L-2-(carboxycyclopropyl)glycine-I] | – | 0.012 µM
NC1(C(=O)O)CNC(C(=O)O)C1 (stereo not drawn) [2R,4R-4-aminopyrrolidine-2,4-dicarboxylate] | – | 0.55 µM
